According to patent US10603289B2, “Process for the manufacture of ajoene derivatives” (DANMARKS TEKNISKE UNIVERSITET, priority 2010, dated 2020):

Assays:
[1] = system: rhamnolipid production of planktonic grown P. aeruginosa; assay: Rhamnolipid concentration in cultures quantified by LC-MS; assay type: cell-based; conditions: for rhamnolipid content: OD=1.5 (FIG. 4)
From the text: Samples retrieved at OD600=1.5 (dark grey bars), and at OD600=2.0 (light grey bars). Data represent the average of tree individual experiments. Error bars are mean±SD.
To exemplify the actual efficacy of ajoene in inhibiting synthesis of one of the major virulence factors, the concentration of rhamnolipid present in the cultures grown for DNA array and RT-PCR where directly quantified by LC-MS. The production of rhamnolipids is initiated early in stationary phase co-ordinately regulated by the Rhl QS system encoded by the rhlA, rhlB and rhlC genes (PA3479, PA3478 and PA1131) [V. E. Wagner et al., J Bacteriol., 2003, 185, p. 2080-2095 and R. Rahim et al., Mol Microbiol., 2001, 40, p. 708-718]. Samples where therefore retrieved at an OD600 nm of 1.5 and 2.0 to monitor rhamnolipid production before and after the synthesis was fully initiated. […] This concentration therefore almost completely blocks rhamnolipid synthesis. (E,Z) ajoene having an E:Z ratio of 1:4 was used.

[2] = system: P. aeruginosa biofilms exposed to PMNs; assay: Flow chamber biofilm exposed to PMNs, propidium iodide staining; assay type: cell-based; conditions: biofilm grown four days in the presence of 100 μg/ml ajoene; E:Z 1:4
Method: A) The biofilm has grown without ajoene in the medium. B) The biofilm has grown in the presence of 100 μg/mL ajoene in the medium. Red fluorescence indicates necrotic PMN's leaking out their content of DNA (as stained by PI). Green fluorescence indicates top areas of the P. aeruginosa biofilm.
Biofilms exposed to PMN leukocytes produce rhamnolipids that function as a shield and protects the biofilm bacteria from phagocytosis. […] 20-42]. The P. aeruginosa biofilms were grown for four days either in the presence or absence of 100 μg/ml ajoene. When PMNs subsequently were introduced in the flow chambers on top of the biofilms grown in the absence of ajoene, propidium iodide (PI) staining indicated necrosis of the PMNs (FIG. 5A). […] Ajoene treatment therefore rescues the PMN leukocytes by blocking biofilm synthesis of […]. It has previously been shown that rescued PMN's can phagocytose biofilm bacteria [T. Bjarnsholt et al., Microbiology, 2005, 151, p. 3873-3880]. (E,Z) ajoene having an E:Z ratio of 1:4 was used.

[3] = system: biofilms of P. aeruginosa PAO1; assay: In vitro flow cell biofilm killing, live dead stains and CSLM; assay type: cell-based; conditions: tobramycin or ajoene only
Method: Dead cells are stained with the DNA stain PI (Dark grey/black). The biofilm were visualized with CSLM. C) Implant model treated with ajoene and tobramycin.
3873-3880]. It was however unknown what was the active ingredient in the garlic extract. Thus. biofilms of P. aeruginosa strain were either grown in the presence or absence of 100 μg/ml ajoene. At day three the biofilms were treated with 10 μg/ml tobramycin for 24 hours. […] 10 μg/ml tobramycin was therefore chosen for the present study.

P. aeruginosa PAO1 = assay type: in vivo
Method: Mice were sacrificed on day one or day three post-infection and the contents of bacteria in the lungs were determined. Open squares indicate bacterial lung content per lung for each individual mouse. The median values are indicated with a filled black square. The statistic significance of difference in clearance was tested by a Mann-Whitney U test (analysis of nonparametric data) and p-values for the difference at day one and day three were 0.9 and 0.002 respectively.
In this study ajoene was administered prophylactic and subsequently continued after infection. Injections were given subcutaneous in the peritoneum. We performed three individual in vivo treatment experiments with ajoene in the mouse model of pulmonary infection using the P. aeruginosa PAO1. BALB/c mice were intracheally challenged (at day 0) with alginate beads containing 1.5×10^8 CFU/ml P. aeruginosa. The two groups of mice were either untreated (placebo) or treated with ajoene 25 μg/g mouse once a day. The mice were given two days of prophylactic treatment or placebo prior to bacterial challenge. Treatment was continued for three days. […] When combining the experiments a significant difference on day three was seen (p<0.002) with a 500 fold difference in clearance between the groups (FIG. 7). This is concordant with the results obtained by Bjarnsholt et al (2005) in a similar lung infection model in with raw garlic extract was used as treatment [T. Bjarnsholt et al., Microbiology, 2005, 151, p. 3873-3880].
This highlights that a synthesis providing a sufficiently pure “crude” ajoene product is essential in order to avoid the use of HPLC purification, as this step has a detrimental effect on biological activity. […] (E,Z) ajoene having an E:Z ratio of 1:4 was used.

[4] = Biological activity after further purification, assays as described in the examples; conditions: after column chromatography further purified, e.g. reverse phase HPLC; or isolated pure isomers
From the text: The purity of (E,Z)-ajoene after the above procedure may be 95-99.5%, such as 97-99.5%, 98-99.5%, 99-99.5% such as about 99.5%. […] This was also found when isolating pure (E)-ajoene and/or pure (Z)-ajoene, e.g. using HPLC. It is speculated that small amounts of ajoene derived chemistry, i.e. compounds related to ajoene, such as less than 5%, 3%, 2%, 1%, such as less than 0.5% may be highly important in the stabilisation of (E,Z)-ajoene and derivatives, towards degradation, e.g. oxidation, reduction and or cleavage, both in vitro but importantly also in vivo.

P. aeruginosa = conditions: E:Z=1:4 isomer used; cited from earlier work
Gram negative bacteria = conditions: E:Z=1:4 isomer used; cited from earlier work

Which “rhamnolipid content compared to the untreated culture” value ([1]; 20 μg/ml ajoene, OD600 nm of 2.0) does the source give for `C=CCSSC=CC[S+]([O-])CC=C` (centres unmarked) [ajoene, (E,Z)-4,5,9-trithiadodeca-1,6,11-triene-9-oxide] here?
The value was “approximately ⅓”.

And the rhamnolipid content ([1]; 40 μg/ml ajoene)?
The rhamnolipid content was “below the detection level”.

What about the “rhamnolipid present in the sample” value ([1]; 80 μg/ml ajoene) of the same compound?
Its value is “almost no detectable rhamnolipid”.

What about the rhamnolipid content ([1]; 80 μg/ml ajoene) of the same compound?
Its rhamnolipid content is “below the detection level”.

What about the “necrosis of PMNs on biofilm (PI staining)” value [2] of the same compound?
Its value is “no necrosis of the PMNs was observed”.

And the “killing of the biofilm bacteria, single agent” value [3]?
Its value is “no or only minor killing”.

What about the “difference in clearance between treated and placebo groups” value (P. aeruginosa PAO1; day three, 25 μg/g mouse once a day subcutaneous, two days prophylactic, three experiments combined) of the same compound?
Its value is 500 fold.

What about the “tolerability of the administered dosage” value (P. aeruginosa PAO1; mouse, in vivo) of the same compound?
Its value is “tolerated well”.

And the “biological activity after further purification” value [4]?
The value was “lost all or parts of its biological activity”.

What about the “growth inhibitory effect on P. aeruginosa” value (P. aeruginosa) of the same compound?
Its value is “no measurable growth inhibitory effect”.

What about the “inhibitory effect on Gram negative bacteria” value (Gram negative bacteria) of the same compound?
Its value is “varied inhibitory effect”.
